Laboratory results: the NIST ThermoML archive (doi:10.1021/je500696p)

Experiments:
[1] = xn = mol fraction of the nth substance listed; settings: 100 kPa, Liquid, Vibrating tube method
[2] = excess molar enthalpy (molar enthalpy of mixing); xn = mol fraction of the nth substance listed; settings: 100 kPa, Liquid, Calvet calorimetry

CCCC[N+](C)(C)C.O=S(=O)([N-]S(=O)(=O)C(F)(F)F)C(F)(F)F [butyltrimethylammonium bis(trifluoromethylsulfonyl)imide] + CCCO
Settings	excess molar enthalpy [kJ/mol]	mass density [kg/m3]
[1], 293.15 K, x2 = 0	–	1397.1
[1], 293.15 K, x2 = 0.1273	–	1375
[1], 293.15 K, x2 = 0.2596	–	1346.9
[1], 293.15 K, x2 = 0.3787	–	1315
[1], 293.15 K, x2 = 0.4996	–	1273.9
[1], 293.15 K, x2 = 0.6368	–	1210.1
[1], 293.15 K, x2 = 0.7624	–	1126
[1], 293.15 K, x2 = 0.8787	–	1008.7
[1], 293.15 K, x2 = 0.9498	–	903.9
[1], 293.15 K, x2 = 0.9799	–	847.3
[1], 295.15 K, x2 = 0	–	1395.3
[1], 295.15 K, x2 = 0.1273	–	1373.2
[1], 295.15 K, x2 = 0.2596	–	1345.1
[1], 295.15 K, x2 = 0.3787	–	1313.2
[1], 295.15 K, x2 = 0.4996	–	1272.1
[1], 295.15 K, x2 = 0.6368	–	1208.3
[1], 295.15 K, x2 = 0.7624	–	1124.2
[1], 295.15 K, x2 = 0.8787	–	1006.9
[1], 295.15 K, x2 = 0.9498	–	902.2
[1], 295.15 K, x2 = 0.9799	–	845.7
[1], 298.15 K, x2 = 0	–	1392.7
[1], 298.15 K, x2 = 0.1273	–	1370.6
[1], 298.15 K, x2 = 0.2596	–	1342.4
[1], 298.15 K, x2 = 0.3787	–	1310.6
[1], 298.15 K, x2 = 0.4996	–	1269.4
[1], 298.15 K, x2 = 0.6368	–	1205.6
[1], 298.15 K, x2 = 0.7624	–	1121.4
[1], 298.15 K, x2 = 0.8787	–	1004.3
[1], 298.15 K, x2 = 0.9498	–	899.7
[1], 298.15 K, x2 = 0.9799	–	843.2
[1], 303.15 K, x2 = 0	–	1388.3
[1], 303.15 K, x2 = 0.1273	–	1366.2
[1], 303.15 K, x2 = 0.2596	–	1338
[1], 303.15 K, x2 = 0.3787	–	1306.1
[1], 303.15 K, x2 = 0.4996	–	1264.9
[1], 303.15 K, x2 = 0.6368	–	1201.1
[1], 303.15 K, x2 = 0.7624	–	1117
[1], 303.15 K, x2 = 0.8787	–	999.9
[1], 303.15 K, x2 = 0.9498	–	895.5
[1], 303.15 K, x2 = 0.9799	–	839.1
[1], 308.15 K, x2 = 0	–	1384
[1], 308.15 K, x2 = 0.1273	–	1361.8
[1], 308.15 K, x2 = 0.2596	–	1333.5
[1], 308.15 K, x2 = 0.3787	–	1301.6
[1], 308.15 K, x2 = 0.4996	–	1260.4
[1], 308.15 K, x2 = 0.6368	–	1196.5
[1], 308.15 K, x2 = 0.7624	–	1112.5
[1], 308.15 K, x2 = 0.8787	–	995.5
[1], 308.15 K, x2 = 0.9498	–	891.2
[1], 308.15 K, x2 = 0.9799	–	835
[1], 313.15 K, x2 = 0	–	1379.6
[1], 313.15 K, x2 = 0.1273	–	1357.4
[1], 313.15 K, x2 = 0.2596	–	1329.1
[1], 313.15 K, x2 = 0.3787	–	1297.2
[1], 313.15 K, x2 = 0.4996	–	1255.9
[1], 313.15 K, x2 = 0.6368	–	1192
[1], 313.15 K, x2 = 0.7624	–	1107.9
[1], 313.15 K, x2 = 0.8787	–	991.1
[1], 313.15 K, x2 = 0.9498	–	887
[1], 313.15 K, x2 = 0.9799	–	830.8
[1], 318.15 K, x2 = 0	–	1375.2
[1], 318.15 K, x2 = 0.1273	–	1353
[1], 318.15 K, x2 = 0.2596	–	1324.7
[1], 318.15 K, x2 = 0.3787	–	1292.7
[1], 318.15 K, x2 = 0.4996	–	1251.4
[1], 318.15 K, x2 = 0.6368	–	1187.4
[1], 318.15 K, x2 = 0.7624	–	1103.4
[1], 318.15 K, x2 = 0.8787	–	986.7
[1], 318.15 K, x2 = 0.9498	–	882.6
[1], 318.15 K, x2 = 0.9799	–	826.6
[1], 323.15 K, x2 = 0	–	1370.9
[1], 323.15 K, x2 = 0.1273	–	1348.6
[1], 323.15 K, x2 = 0.2596	–	1320.3
[1], 323.15 K, x2 = 0.3787	–	1288.2
[1], 323.15 K, x2 = 0.4996	–	1246.9
[1], 323.15 K, x2 = 0.6368	–	1182.9
[1], 323.15 K, x2 = 0.7624	–	1098.8
[1], 323.15 K, x2 = 0.8787	–	982.2
[1], 323.15 K, x2 = 0.9498	–	878.3
[1], 323.15 K, x2 = 0.9799	–	822.4
[1], 328.15 K, x2 = 0	–	1366.6
[1], 328.15 K, x2 = 0.1273	–	1344.3
[1], 328.15 K, x2 = 0.2596	–	1315.9
[1], 328.15 K, x2 = 0.3787	–	1283.8
[1], 328.15 K, x2 = 0.4996	–	1242.4
[1], 328.15 K, x2 = 0.6368	–	1178.3
[1], 328.15 K, x2 = 0.7624	–	1094.3
[1], 328.15 K, x2 = 0.8787	–	977.7
[1], 328.15 K, x2 = 0.9498	–	873.9
[1], 328.15 K, x2 = 0.9799	–	818
[1], 333.15 K, x2 = 0	–	1362.3
[1], 333.15 K, x2 = 0.1273	–	1339.9
[1], 333.15 K, x2 = 0.2596	–	1311.5
[1], 333.15 K, x2 = 0.3787	–	1279.4
[1], 333.15 K, x2 = 0.4996	–	1237.9
[1], 333.15 K, x2 = 0.6368	–	1173.8
[1], 333.15 K, x2 = 0.7624	–	1089.7
[1], 333.15 K, x2 = 0.8787	–	973.1
[1], 333.15 K, x2 = 0.9498	–	869.5
[1], 333.15 K, x2 = 0.9799	–	813.7
[2], 308.15 K, x2 = 0.1224	0.935	–
[2], 308.15 K, x2 = 0.2622	1.83	–
[2], 308.15 K, x2 = 0.2665	1.85	–
[2], 308.15 K, x2 = 0.374	2.33	–
[2], 308.15 K, x2 = 0.4927	2.6	–
[2], 308.15 K, x2 = 0.5007	2.61	–
[2], 308.15 K, x2 = 0.5108	2.62	–
[2], 308.15 K, x2 = 0.5118	2.64	–
[2], 308.15 K, x2 = 0.6191	2.53	–
[2], 308.15 K, x2 = 0.744	2.23	–
[2], 308.15 K, x2 = 0.7466	2.23	–
[2], 308.15 K, x2 = 0.7505	2.18	–
[2], 308.15 K, x2 = 0.8709	1.48	–
[2], 313.15 K, x2 = 0.113	0.781	–
[2], 313.15 K, x2 = 0.2393	1.56	–
[2], 313.15 K, x2 = 0.2549	1.61	–
[2], 313.15 K, x2 = 0.3933	2.17	–
[2], 313.15 K, x2 = 0.4936	2.38	–
[2], 313.15 K, x2 = 0.4959	2.37	–
[2], 313.15 K, x2 = 0.499	2.38	–
[2], 313.15 K, x2 = 0.6245	2.36	–
[2], 313.15 K, x2 = 0.7406	2.12	–
[2], 313.15 K, x2 = 0.8666	1.54	–
[2], 323.15 K, x2 = 0.1187	0.773	–
[2], 323.15 K, x2 = 0.2569	1.7	–
[2], 323.15 K, x2 = 0.2694	1.76	–
[2], 323.15 K, x2 = 0.3969	2.25	–
[2], 323.15 K, x2 = 0.527	2.51	–
[2], 323.15 K, x2 = 0.5431	2.56	–
[2], 323.15 K, x2 = 0.6214	2.5	–
[2], 323.15 K, x2 = 0.7499	2.29	–
[2], 323.15 K, x2 = 0.8707	1.73	–
